Test results taken from PubChem BioAssay AID2060615 (Molecular Pharmacology Branch, DTP, NCI, 2025).
Where “and” joins values, the source holds several entries; their conditions need not be identical. Identical values can stand only once. Each block holds one compound with its values, some of them ahead of it.

Test system: 496974-208-R-J2-PDC complex spheroids, growth % test/control
Test: Anticancer human tumor 496974-208-R-J2-PDC patient-derived pancreatic carcinoma cell line growth inhibition [CLK]
Details: for viability, T/C: stronger effect = lower value
Outline: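 Multi-cell-type spheroids combined patient-derived tumor cells with HUVEC endothelial cells and human mesenchymal stem cells. Paired agents were dosed in half-log steps down from about clinical Cmax, or from 10 microM where Cmax was unknown.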

[1] = curve of first compound, second compound 0.0316 µM
[2] = curve of first compound, second compound 0.1 µM
[3] = curve of first compound, second compound 0.316 µM
[4] = curve of first compound, second compound 1 µM
[5] = curve of first compound, second compound 3.16 µM
[6] = curve of first compound, second compound 10 µM
[7] = second compound 0.0316 µM, first compound 0.0316 µM
[8] = second compound 0.0316 µM, first compound 0.1 µM
[9] = second compound 0.0316 µM, first compound 0.316 µM
[10] = second compound 0.0316 µM, first compound 1 µM
[11] = second compound 0.0316 µM, first compound 3.16 µM
[12] = second compound 0.0316 µM, first compound 10 µM
[13] = second compound 0.1 µM, first compound 0.0316 µM
[14] = second compound 0.1 µM, first compound 0.1 µM
[15] = second compound 0.1 µM, first compound 0.316 µM
[16] = second compound 0.1 µM, first compound 1 µM
[17] = second compound 0.1 µM, first compound 3.16 µM
[18] = second compound 0.1 µM, first compound 10 µM
[19] = second compound 0.316 µM, first compound 0.0316 µM
[20] = second compound 0.316 µM, first compound 0.1 µM
[21] = second compound 0.316 µM, first compound 0.316 µM
[22] = second compound 0.316 µM, first compound 1 µM
[23] = second compound 0.316 µM, first compound 3.16 µM
[24] = second compound 0.316 µM, first compound 10 µM
[25] = second compound 1 µM, first compound 0.0316 µM
[26] = second compound 1 µM, first compound 0.1 µM
[27] = second compound 1 µM, first compound 0.316 µM
[28] = second compound 1 µM, first compound 1 µM
[29] = second compound 1 µM, first compound 3.16 µM
[30] = second compound 1 µM, first compound 10 µM
[31] = second compound 3.16 µM, first compound 0.0316 µM
[32] = second compound 3.16 µM, first compound 0.1 µM
[33] = second compound 3.16 µM, first compound 0.316 µM
[34] = second compound 3.16 µM, first compound 1 µM
[35] = second compound 3.16 µM, first compound 3.16 µM
[36] = second compound 3.16 µM, first compound 10 µM
[37] = second compound 10 µM, first compound 0.0316 µM
[38] = second compound 10 µM, first compound 0.1 µM
[39] = second compound 10 µM, first compound 0.316 µM
[40] = second compound 10 µM, first compound 1 µM
[41] = second compound 10 µM, first compound 3.16 µM
[42] = second compound 10 µM, first compound 10 µM
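Also: spheroids exposed to the drugs for 7 days before readout.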
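For viability, T/C in this document: 100% = DMSO vehicle control wells.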

Structure (SMILES): COc1ccc([C@@H](O)c2cc(-c3ncnc4cc(N5CCOCC5)ccc34)c(F)cc2Cl)nn1
- viability, T/C (compound 0.0316 µM): 104%
- viability, T/C (compound 0.1 µM): 91.3% and 92.1%
- viability, T/C (compound 0.316 µM): 87% and 103%
- viability, T/C (compound 1 µM): 77.4% and 80.6%
- viability, T/C (compound 3.16 µM): 64.5% and 71.6%
- viability, T/C (compound 10 µM): 31.2% and 40.8%
- IC50 (curve of compound): 4920 nM and 7030 nM

Structure (SMILES): CC1(C)CCC(CN2CCN(c3ccc(C(=O)NS(=O)(=O)c4ccc(NCC5CCOCC5)c([N+](=O)[O-])c4)c(Oc4cnc5[nH]ccc5c4)c3)CC2)=C(c2ccc(Cl)cc2)C1 + CN1CCN(c2cc(C(=O)Nc3cc4cc(-c5cnn(C)c5)ccc4cn3)ccn2)CC1
- IC50 [1]: > 10000 nM
- IC50 [2]: 8060 nM
- IC50 [3]: < 31.6 nM
- IC50 [4]: < 31.6 nM
- IC50 [5]: < 31.6 nM
- IC50 [6]: < 31.6 nM
- viability, T/C [7]: 93.7%
- viability, T/C [8]: 95.9%
- viability, T/C [9]: 101%
- viability, T/C [10]: 104%
- viability, T/C [11]: 92.1%
- viability, T/C [12]: 50.8%
- viability, T/C [13]: 80.3%
- viability, T/C [14]: 77.9%
- viability, T/C [15]: 86.7%
- viability, T/C [16]: 87.7%
- viability, T/C [17]: 84.9%
- viability, T/C [18]: 42.3%
- viability, T/C [19]: 5.92%
- viability, T/C [20]: 5.59%
- viability, T/C [21]: 5.97%
- viability, T/C [22]: 6.42%
- viability, T/C [23]: 3.9%
- viability, T/C [24]: 5.66%
- viability, T/C [25]: 0.75%
- viability, T/C [26]: 0.68%
- viability, T/C [27]: 0.5%
- viability, T/C [28]: 0.5%
- viability, T/C [29]: 0.63%
- viability, T/C [30]: 2.1%
- viability, T/C [31]: 0.5%
- viability, T/C [32]: 0.74%
- viability, T/C [33]: 0.43%
- viability, T/C [34]: 0.7%
- viability, T/C [35]: 0.52%
- viability, T/C [36]: 3.57%
- viability, T/C [37]: 0.25%
- viability, T/C [38]: 1.16%
- viability, T/C [39]: 0.37%
- viability, T/C [40]: 0.34%
- viability, T/C [41]: 0.32%
- viability, T/C [42]: 2.82%

Structure (SMILES): CCN1CCN(Cc2ccc(Nc3ncc(F)c(-c4cc(F)c5nc(C)n(C(C)C)c5c4)n3)nc2)CC1
- viability, T/C (compound 0.00316 µM): 102% and 112%
- viability, T/C (compound 0.01 µM): 93.9% and 90.8%
- viability, T/C (compound 0.0316 µM): 87.1% and 90.3%
- viability, T/C (compound 0.1 µM): 82.4% and 97.8%
- viability, T/C (compound 0.316 µM): 90.3% and 92.8%
- viability, T/C (compound 1 µM): 96.5% and 103%
- IC50 (curve of compound): > 1000 nM

Structure (SMILES): O=C(c1cc(Cc2n[nH]c(=O)c3ccccc23)ccc1F)N1CCN(C(=O)C2CC2)CC1 + CN1CCN(c2cc(C(=O)Nc3cc4cc(-c5cnn(C)c5)ccc4cn3)ccn2)CC1
- IC50 [1]: > 10000 nM
- IC50 [2]: > 10000 nM
- IC50 [3]: < 31.6 nM
- IC50 [4]: < 31.6 nM
- IC50 [5]: < 31.6 nM
- IC50 [6]: < 31.6 nM
- viability, T/C [7]: 98.7%
- viability, T/C [8]: 96%
- viability, T/C [9]: 87.4%
- viability, T/C [10]: 97.7%
- viability, T/C [11]: 88.3%
- viability, T/C [12]: 88.2%
- viability, T/C [13]: 82.7%
- viability, T/C [14]: 76%
- viability, T/C [15]: 80.2%
- viability, T/C [16]: 79.4%
- viability, T/C [17]: 83.2%
- viability, T/C [18]: 64.7%
- viability, T/C [19]: 5.96%
- viability, T/C [20]: 5.32%
- viability, T/C [21]: 5.38%
- viability, T/C [22]: 6.21%
- viability, T/C [23]: 5.51%
- viability, T/C [24]: 6.01%
- viability, T/C [25]: 0.53%
- viability, T/C [26]: 0.75%
- viability, T/C [27]: 1.95%
- viability, T/C [28]: 0.47%
- viability, T/C [29]: 1.71%
- viability, T/C [30]: 1.78%
- viability, T/C [31]: 0.81%
- viability, T/C [32]: 0.43%
- viability, T/C [33]: 0.55%
- viability, T/C [34]: 0.48%
- viability, T/C [35]: 0.71%
- viability, T/C [36]: 4%
- viability, T/C [37]: 0.41%
- viability, T/C [38]: 0.24%
- viability, T/C [39]: 0.82%
- viability, T/C [40]: 0.42%
- viability, T/C [41]: 2.08%
- viability, T/C [42]: 2.09%

Further lines, with some results ahead:

- IC50 (curve of compound): 6.04 nM and 8.48 nM
Structure (SMILES): CCc1c2c(nc3ccc(O)cc13)-c1cc3c(c(=O)n1C2)COC(=O)[C@]3(O)CC
- viability, T/C (compound 0.00316 µM): 67.2% and 61.3%
- viability, T/C (compound 0.01 µM): 32.4% and 47.9%
- viability, T/C (compound 0.0316 µM): 25.7% and 35.4%
- viability, T/C (compound 0.1 µM): 17.4% and 23.2%
- viability, T/C (compound 0.316 µM): 9.88% and 12.9%
- viability, T/C (compound 1 µM): 2.2% and 3.2%

- IC50 (curve of compound): 4370 nM and 4160 nM
Structure (SMILES): Nc1ccccc1NC(=O)c1ccc(CNC(=O)OCc2cccnc2)cc1
- viability, T/C (compound 0.0316 µM): 104% and 112%
- viability, T/C (compound 0.1 µM): 86.3% and 98.7%
- viability, T/C (compound 0.316 µM): 85.9% and 86.6%
- viability, T/C (compound 1 µM): 77.5% and 72.4%
- viability, T/C (compound 3.16 µM): 74.1% and 77.9%
- viability, T/C (compound 10 µM): 0.53% and 0.83%
